Measured values from patent US11766468B2, “Method of treating prostate cancer with GnRH antagonist” (priority 2012, dated 2023).
Square brackets hold non-standard residues; d marks the D form. Peptide text beside a SMILES is read from it. * marks the point of attachment. dPhe(4-NHCONH2) = NC(=O)Nc1ccc(C[C@@H](N)C(=O)O)cc1; Dihydroorotyl(S) = O=C1C[C@@H](C(=O)*)NC(=O)N1; dPhe(4-Cl) = N[C@H](Cc1ccc(Cl)cc1)C(=O)O; Phe(4-NH2) = Nc1ccc(C[C@H](N)C(=O)O)cc1; d2Nal = N[C@H](Cc1ccc2ccccc2c1)C(=O)O; Lys(iPr) = CC(C)NCCCC[C@H](N)C(=O)O; d3Pal = N[C@H](Cc1cccnc1)C(=O)O

Key:
clinical = settings: human, in vivo, sc
Description: Median degarelix trough concentrations in the maintenance phase with 80 mg at a concentration of 20 mg/mL was 10.9 ng/mL.
The long half-life after subcutaneous administration is a consequence of a very slow release of degarelix from the depot formed at the injection site(s). The pharmacokinetic behavior of the drug is strongly influenced by its concentration in the injection formulation.

human CYP450 system = format: in vitro ADME
testosterone = experiment: Example 2: serum testosterone (LC-MS/MS); format: in vivo, human; settings: from Day 28 (Month 1)
Description: Serum testosterone was typically measured at baseline and then monthly in all cases. Serum testosterone was measured at a central laboratory using a validated liquid chromatography system with a tandem mass spectrometry assay with a lower limit of quantitation of 3 ng/dl.

[1] = in vivo
Description: In this example, a study was conducted to investigate the risk of cardiovascular events when ADT is utilized by a GnRH antagonist versus agonist in patients with or without a history of cardiovascular events.
Specifically, this study utilized available data yielding a safety database of 2328 PCa (prostate cancer) patients who participated in randomized clinical trials and received treatment with either degarelix or a GnRH agonist for up to 12 months (13 treatment months).
The study is based on data from two completed Phase 3 and 4 Phase 3b trials, all of which used an active comparator in form of a GnRH agonist. In each study, the primary inclusion criteria were male subjects ≥8 years of age with histologically confirmed adenocarcinoma of the prostate in whom ADT was indicated and a life expectancy of minimum 12 months could be anticipated. All subjects had serum testosterone levels that were either within the age-specified normal range or above the lower limit of the normal range of the central laboratory and ECOG score ≤2. Exclusion criterion ensured that none of the subjects had received long-term ADT (>6 months) before study entry.
Baseline evaluation included thorough collection of the main demographic characteristics (age, weight, height), lifestyle factors (smoking and drinking habits), and major CV risk factors (treated type 2 diabetes, treated hyperlipidemia, treated hypertension, and systolic and diastolic blood pressure). Patients also underwent physical examination and ECG assessment for potential cardiac morbidities. Medical history of CV events was captured by the following Standardized MedDRA Queries (myocardial infarction, ischemic heart diseases, ischemic stroke, hemorrhagic stroke, other arterial thrombotic/embolic events).
Cardiovascular events of interest were collected prospectively, typically at monthly visits, as adverse events or serious adverse events with date of occurrence. These events were coded using standard MedDRA terms and grouped into one of the same categories as those used to collect medical history.
The CV event rates in agonist and antagonist-treated patients were analyzed by 1-Kaplan-Meier plots of time to first-reported CV events and compared with log-rank test. The analysis was performed separately for strata of patients with or without history of CV events. To identify independent predictors of CV events we applied multivariate Cox proportional hazards models.
To further explore the apparent independent role of treatment choice and identify independent modifiable risk factors, this study established Cox proportional hazard models including CV events occurring during treatment as dependent variable and age, history of CV event, drinking (i.e., high alcohol consumption or abstinence) and smoking habits, hypertension, serum testosterone level and PCa disease stage as independent variables.

[2] = human, in vivo
Description: Safety data from all clinical trials with degarelix in the treatment of prostate cancer, including patients receiving other dosing regimens, were pooled.

CC(=O)N[C@H](Cc1ccc2ccccc2c1)C(=O)N[C@H](Cc1ccc(Cl)cc1)C(=O)N[C@H](Cc1cccnc1)C(=O)N[C@@H](CO)C(=O)N[C@@H](Cc1ccc(NC(=O)[C@@H]2CC(=O)NC(=O)N2)cc1)C(=O)N[C@H](Cc1ccc(NC(N)=O)cc1)C(=O)N[C@@H](CC(C)C)C(=O)N[C@@H](CCCCNC(C)C)C(=O)N1CCC[C@H]1C(=O)N[C@H](C)C(N)=O [Degarelix, D-Alaninamide, N-acetyl-3-(2-naphthalenyl)-D-alanyl-4-chloro-D-phenylalanyl-3-(3-pyridinyl)-D-alanyl-L-seryl-4-[[[(4S)-hexahydro-2,6-dioxo-4-pyrimidinyl]carbonyl]amino]-L phenylalanyl-4-[(aminocarbonyl)amino]-D-phenylalanyl-L leucyl-N6-(1-methylethyl)-L-lysyl-L-prolyl] (Ac-[d2Nal][dPhe(4-Cl)][d3Pal]S[Phe(4-NH2)](Dihydroorotyl(S))[dPhe(4-NHCONH2)]L[Lys(iPr)]P[dA]-NH2)
metabolites in plasma samples (clinical): No significant metabolites were detected | Median degarelix trough concentration (clinical; male, 80 mg): 10.9 ng/mL | AUC (clinical; male, 240 mg): 29800 ng·h/mL | substrate for the human CYP450 system (human CYP450 system): not a substrate for the human CYP450 system | median testosterone level (testosterone): < 0.5 ng/mL | Any CV adverse event, % (adverse events E) [1]: 6.0% | Any CV adverse event, % of patients with adverse events [1]: 2.9% | Any CV adverse event, E = Number of adverse events [1]: 90 | Any CV adverse event, N = Number of patients with adverse events [1]: 44 | HR for CV event, degarelix versus the agonist [1]: 0.62 | HR for CV event, degarelix vs agonist [1]: 0.49 | Hemorrhagic stroke, % (adverse events E) [1]: 0.2% | Hemorrhagic stroke, % of patients with adverse events [1]: 0.2% | Hemorrhagic stroke, E = Number of adverse events [1]: 3 | Hemorrhagic stroke, N = Number of patients with adverse events [1]: 3 | Ischemic heart disease, % (adverse events E) [1]: 1.8% | Ischemic heart disease, % of patients with adverse events [1]: 1.7% | Ischemic heart disease, E = Number of adverse events [1]: 27 | Ischemic heart disease, N = Number of patients with adverse events [1]: 25 | Ischemic stroke, % (adverse events E) [1]: 1.1% | Ischemic stroke, % of patients with adverse events [1]: 0.9% | Ischemic stroke, E = Number of adverse events [1]: 16 | Ischemic stroke, N = Number of patients with adverse events [1]: 14 | Myocardial infarction, % (adverse events E) [1]: 1.0% | Myocardial infarction, % of patients with adverse events [1]: 0.8% | Myocardial infarction, E = Number of adverse events [1]: 15 | Myocardial infarction, N = Number of patients with adverse events [1]: 13 | Other embolic or thrombotic events, arterial, % (adverse events E) [1]: 1.9% | Other embolic or thrombotic events, arterial, % of patients with adverse events [1]: 1.5% | Other embolic or thrombotic events, arterial, E = Number of adverse events [1]: 29 | Other embolic or thrombotic events, arterial, N = Number of patients with adverse events [1]: 23 | risk of a CV event lower if taking degarelix versus the agonist [1]: 38% | drug-related erectile dysfunction, gynaecomastia, hyperhidrosis, testicular atrophy, diarrhea: % of patients [2]: ≥ 1%
